Experiment: xn = mol fraction of the nth substance listed

NC=O + CC(=O)O
viscosity [mPa·s]
Details | 298.15 K | 303.15 K | 308.15 K | 313.15 K
101 kPa, x1 = 0.109 | 2.001 | – | – | 1.462
101 kPa, x1 = 0.2105 | 2.855 | – | – | 2.029
101 kPa, x1 = 0.3058 | 3.481 | – | – | 2.361
101 kPa, x1 = 0.4011 | 3.864 | – | – | 2.589
101 kPa, x1 = 0.5018 | 4.217 | – | – | 2.791
101 kPa, x1 = 0.5944 | 4.341 | – | – | 2.904
101 kPa, x1 = 0.7026 | 4.316 | – | – | 2.903
101 kPa, x1 = 0.7961 | 4.146 | – | – | 2.899
101 kPa, x1 = 0.9038 | 3.824 | – | – | 2.589
101.33 kPa, x1 = 0.0782 | 1.54 | 1.39 | 1.28 | 1.19
101.33 kPa, x1 = 0.1552 | 2.07 | 1.84 | 1.68 | 1.54
101.33 kPa, x1 = 0.2319 | 2.63 | 2.3 | 2.09 | 1.89
101.33 kPa, x1 = 0.3049 | 3.11 | 2.71 | 2.43 | 2.19
101.33 kPa, x1 = 0.3832 | 3.54 | 3.06 | 2.73 | 2.45
101.33 kPa, x1 = 0.4595 | 3.85 | 3.32 | 2.95 | 2.65
101.33 kPa, x1 = 0.5395 | 4.04 | 3.52 | 3.08 | 2.81
101.33 kPa, x1 = 0.6155 | 4.02 | 3.5 | 3.1 | 2.77
101.33 kPa, x1 = 0.6939 | 3.97 | 3.49 | 3.08 | 2.75
101.33 kPa, x1 = 0.7683 | 3.83 | 3.4 | 2.97 | 2.67
101.33 kPa, x1 = 0.8477 | 3.57 | 3.1 | 2.79 | 2.53
101.33 kPa, x1 = 0.9228 | 3.36 | 2.94 | 2.65 | 2.4

O=S(=O)([O-])[O-].[NH4+].[NH4+] + O
viscosity [mPa·s], 101 kPa
Details | 298.15 K | 308.15 K | 318.15 K
x1 = 0.008901 | 0.9796 | 0.8523 | 0.7339
x1 = 0.01765 | 1.709 | 1.427 | 1.231

NC=O + CCCCn1cc[n+](C)c1.F[B-](F)(F)F
101 kPa
Details | viscosity [mPa·s]
293.15 K, x2 = 0.7588 | 71.35
303.15 K, x2 = 0.5095 | 21.65

OCCCO + CC(C)=O
viscosity [mPa·s], 100 kPa
Details | x2 = 0.1008 | x2 = 0.1914 | x2 = 0.3021 | x2 = 0.4009 | x2 = 0.51 | x2 = 0.6004 | x2 = 0.7 | x2 = 0.7983 | x2 = 0.9002
293.15 K | 29.2 | 17.28 | 9.162 | 5.229 | 2.942 | 1.764 | 1.321 | 1.18 | 1.04
298.15 K | 23.55 | 14.22 | 7.721 | 4.496 | 2.567 | 1.583 | 1.14 | 1.038 | 0.9174
303.15 K | 19.21 | 11.82 | 6.554 | 3.894 | 2.257 | 1.428 | 1.031 | 0.9173 | 0.8122
308.15 K | 15.86 | 9.922 | 5.609 | 3.395 | 1.997 | 1.293 | 0.9331 | 0.8138 | 0.722
313.15 K | 13.22 | 8.416 | 4.85 | 2.979 | 1.78 | 1.175 | 0.8442 | 0.7248 | 0.6442
318.15 K | 11.13 | 7.191 | 4.215 | 2.633 | 1.597 | 1.07 | 0.7632 | 0.6479 | 0.5768
323.15 K | 9.46 | 6.198 | 3.679 | 2.343 | 1.433 | 0.9737 | 0.6946 | 0.5811 | 0.5183

OCCCl + CCCOC(C)=O
viscosity [mPa·s], 101.33 kPa
Details | x1 = 0.1017 | x1 = 0.2031 | x1 = 0.3017 | x1 = 0.4061 | x1 = 0.5057 | x1 = 0.5974 | x1 = 0.7006 | x1 = 0.7963 | x1 = 0.9006
298.15 K | 0.593 | 0.658 | 0.736 | 0.852 | 0.989 | 1.155 | 1.43 | 1.805 | 2.302
303.15 K | 0.557 | 0.614 | 0.687 | 0.792 | 0.908 | 1.057 | 1.293 | 1.615 | 2.035
308.15 K | 0.525 | 0.58 | 0.642 | 0.733 | 0.856 | 0.97 | 1.177 | 1.473 | 1.81

OCCCO + c1ccncc1
Details | viscosity [mPa·s]
313.15 K, 101 kPa, x2 = 0.3 | 8.615

OCCCO + C[N+](C)(C)CCO.[Cl-]
viscosity [mPa·s], 101.3 kPa
Details | 293.15 K | 298.15 K | 298.2 K | 303.15 K | 308.15 K | 308.2 K | 313.15 K | 318.15 K | 318.2 K | 323.15 K
x1 = 0.7509 | 69.74 | 55.76 | – | 45.4 | 37.43 | – | 31.35 | 26.52 | – | 22.62
x1 = 0.8001 | 61.31 | 49.49 | – | 40.7 | 33.88 | – | 27.31 | 23.03 | – | 19.63
x1 = 0.8328 | 57.14 | 46.14 | – | 37.62 | 30.92 | – | 25.67 | 21.53 | – | 18.26
x1 = 0.8567 | 53.95 | 42.83 | – | 34.73 | 28.58 | – | 24.01 | 20.38 | – | 17.26
x2 = 0.1667 | – | – | 49.5 | – | – | 36.9 | – | – | 27.6 | –
x2 = 0.2 | – | – | – | 34.45 | 28.87 | – | 24.21 | 20.52 | – | 17.57
x2 = 0.25 | – | – | – | 40.05 | 33.17 | – | 27.84 | 23.62 | – | 20.25

CCOC(=O)CCC(=O)OCC + CCCC(=O)OCC
Details | viscosity [mPa·s]
303.15 K, 100 kPa, x2 = 0.3003 | 1.535

Source: the CheMixHub viscosity set
